Source: patent publication US6433151B1, “Erythromycin derivatives, a process for their preparation and their use as medicaments” (Aventis Pharma S.A., priority 1998, dated 2002)

What was measured:
Assay in all cases: Method of dilutions in a liquid medium (MIC)
Assay type in all cases: cell-based
[1] = tested on: E. faecalis 02D2DU15c; conditions: ery R, reading after 24 hours
Procedure: (§1) Method of Dilutions in a Liquid Medium
(§2) A series of tubes in which the same amount of sterile nutrient medium is distributed is prepared. Increasing amounts of the product to be studied are distributed in each tube, and each tube is then seeded with a strain of bacteria.
(§3) After incubation for twenty-four hours in an oven at 37° C., the inhibition of growth is evaluated by transillumination, from which the minimum inhibitory concentrations (MIC), expressed in micrograms/cm^3, can be determined.
(§4) The following results were obtained with the product from example 1 and from example 2 (reading taken after 24 hours).

[2] = tested on: E. faecalis 02D2UC1; conditions: E. faecalis 02D2UC1, ery S; reading after 24 hours
Procedure: as §1, §2, §3, §4

[3] = tested on: E. faecium 02D3HT1; conditions: E. faecium 02D3HT1, Ery S; reading after 24 hours
Procedure: as §1, §2, §3, §4

[4] = tested on: S. agalactiae 02B1HT1; conditions: S. agalactiae 02B1HT1, ery S; reading after 24 hours
Procedure: as §1, §2, §3, §4

[5] = tested on: S. agalactiae 02B1SJ1c; conditions: ery R, reading after 24 hours
Procedure: as §1, §2, §3, §4

[6] = tested on: S. aureus 011GO25I; conditions: oxa S ery R, reading after 24 hours
Procedure: as §1, §2, §3, §4

[7] = tested on: S. aureus 011UC4; conditions: reading after 24 hours
Procedure: as §1, §2, §3, §4

[8] = tested on: S. epidermidis 012GO11I; conditions: oxa S ery R, reading after 24 hours
Procedure: as §1, §2, §3, §4

[9] = tested on: S. mitis 02MitCB1; conditions: S. mitis 02MitCB1, Ery S; reading after 24 hours
Procedure: as §1, §2, §3, §4

[10] = tested on: S. mitis 02MitGR16I; conditions: ery R, reading after 24 hours
Procedure: as §1, §2, §3, §4

[11] = tested on: S. pneumoniae 030CR18c; conditions: ery R, reading after 24 hours
Procedure: as §1, §2, §3, §4

[12] = tested on: S. pneumoniae 030GR20; conditions: S. pneumoniae 030GR20, ery S; reading after 24 hours
Procedure: as §1, §2, §3, §4

[13] = tested on: S. pneumoniae 030PW23c; conditions: ery R, reading after 24 hours
Procedure: as §1, §2, §3, §4

[14] = tested on: S. pneumoniae 030R01I; conditions: ery R, reading after 24 hours
Procedure: as §1, §2, §3, §4

[15] = tested on: S. pneumoniae 030SJ1c; conditions: ery R, reading after 24 hours
Procedure: as §1, §2, §3, §4

[16] = tested on: S. pneumoniae 030SJ51; conditions: S. pneumoniae 030SJ51, ery R; reading after 24 hours
Procedure: as §1, §2, §3, §4

[17] = tested on: S. pneumoniae 032UC1; conditions: S. pneumoniae 032UC1, ery S; reading after 24 hours
Procedure: as §1, §2, §3, §4

[18] = tested on: S. pyogenes 02A1UC1; conditions: S. pyogenes 02A1UC1, ery S; reading after 24 hours
Procedure: as §1, §2, §3, §4

[19] = tested on: S. sanguis 02SgGr10I; conditions: ery R, reading after 24 hours
Procedure: as §1, §2, §3, §4

[20] = tested on: Streptococcus gr. G 02GOGR5; conditions: Streptococcus gr. G 02GOGR5, Ery S; reading after 24 hours
Procedure: as §1, §2, §3, §4

[21] = S. aureus 011UC4 + serum 50%, ery S

Compound	minimum inhibitory concentrations (MIC) [1]	minimum inhibitory concentrations (MIC) [2]	minimum inhibitory concentrations (MIC) [3]	minimum inhibitory concentrations (MIC) [4]	minimum inhibitory concentrations (MIC) [5]	minimum inhibitory concentrations (MIC) [6]	minimum inhibitory concentrations (MIC) [7, 21]	minimum inhibitory concentrations (MIC) ([7]; S. aureus 011UC4, ery S)	minimum inhibitory concentrations (MIC) [8]	minimum inhibitory concentrations (MIC) [9]	minimum inhibitory concentrations (MIC) [10]	minimum inhibitory concentrations (MIC) [11]	minimum inhibitory concentrations (MIC) [12]	minimum inhibitory concentrations (MIC) [13]	minimum inhibitory concentrations (MIC) [14]	minimum inhibitory concentrations (MIC) [15]	minimum inhibitory concentrations (MIC) [16]	minimum inhibitory concentrations (MIC) [17]	minimum inhibitory concentrations (MIC) [18]	minimum inhibitory concentrations (MIC) [19]	also measured
CCC1OC(=O)C(C)C(=O)C(C)C(OC2OC(C)CC(NC)C2O)C(C)(OC)CC(C)C(=O)C(C)C2N(CCCCn3cnc(-c4cccnc4)c3)C(=O)OC12C [Ex. 1, N-Demethyl-11,12-dideoxy-3-de[(2,6-dideoxy-3-C-methyl-3-O-methyl-alpha-L-ribohexopyranosyl)-oxy]-6-O-methyl-3-oxo-12,11-[oxycarbonyl[[4-[4-(3-pyridinyl)-1H-imidazol-1-yl]butyl]imino]]-erythromycin]	>40 micrograms/cm^3	0.080 micrograms/cm^3	0.080 micrograms/cm^3	<=0.02 micrograms/cm^3	0.600 micrograms/cm^3	5.000 micrograms/cm^3	0.040 micrograms/cm^3	0.300 micrograms/cm^3	0.150 micrograms/cm^3	0.080 micrograms/cm^3	0.080 micrograms/cm^3	10.000 micrograms/cm^3	<=0.02 micrograms/cm^3	0.150 micrograms/cm^3	0.150 micrograms/cm^3	0.080 micrograms/cm^3	0.080 micrograms/cm^3	<=0.02 micrograms/cm^3	0.800 micrograms/cm^3	0.150 micrograms/cm^3	minimum inhibitory concentrations (MIC) [20]: 0.080 micrograms/cm^3
CCC1OC(=O)C(C)C(=O)C(C)C(OC2OC(C)CC(NC)C2O)C(C)(OC)CC(C)C(=O)C(C)C2N(NCCCc3ccnc4ccccc34)C(=O)OC12C [Ex. 2, N-Demethyl-11,12-dideoxy-3-de((2,6-dideoxy-3-C-methyl-3-O-methyl-alpha-L-ribohexopyranosyl)oxy)-6-O-methyl-3-oxo-12,11-(oxycarbonyl(2-(3-(4-quinolinyl)-propyl)-hydrazono))-erythromycin]	>20 micrograms/cm^3	0.040 micrograms/cm^3	0.040 micrograms/cm^3	0.020 micrograms/cm^3	0.150 micrograms/cm^3	0.600 micrograms/cm^3	0.150 micrograms/cm^3	0.080 micrograms/cm^3	0.300 micrograms/cm^3	<=0.01 micrograms/cm^3	0.080 micrograms/cm^3	2.500 micrograms/cm^3	<=0.01 micrograms/cm^3	0.080 micrograms/cm^3	0.300 micrograms/cm^3	0.150 micrograms/cm^3	0.080 micrograms/cm^3	<=0.01 micrograms/cm^3	0.040 micrograms/cm^3	0.150 micrograms/cm^3	minimum inhibitory concentrations (MIC) [20]: 0.040 micrograms/cm^3
